In patent US10676429B2, “Sulfamoyl-arylamides and the use thereof as medicaments for the treatment of hepatitis B” (priority 2012, dated 2020):

Assays:
HBV [1] = experiment: Anti-HBV activity in stable transfected HepG2.2.15 cell line (HBV DNA from secreted virions, realtime PCR); assay type: cell-based
HBV [2] = experiment: Anti-HBV activity in HepG2.117 cell line (Tet-off, intracellular HBV DNA, realtime PCR); assay type: cell-based
HepG2 cells = experiment: Cytotoxicity in HepG2 cells, 4 days, Resazurin assay; conditions: read-out: HepG2 4 days CC50; HepG2 cells, 4 days, Resazurin
[3] = as above; conditions: human, HepG2 cells
[4] = HepG2.2.15 cells, 6 days of treatment, secreted virion HBV DNA, read-out: HepG2 2.15 EC50
[5] = HepG2.117 cells, 3 days of treatment, intracellular HBV DNA, read-out: HepG2 117 EC50
[6] = Hepatitis B virus, HepG2.117, 72 h, HepG2.117 cells, 3 days of treatment, intracellular HBV DNA, read-out: HepG2 117 EC50
[7] = Hepatitis B virus, HepG2.2.15, 144 h, HepG2.2.15 cells, 6 days of treatment, secreted virion HBV DNA, read-out: HepG2 2.15 EC50

SMILES | EC50 (HBV [1]; [4]) | EC50 (HBV [2]; [5]) | CC50 (HepG2 cells) | EC50 (HBV [2]; [6]) | EC50 (HBV [1]; Hepatitis B virus, HepG2.2.15, 144 h, read-out: HepG2 2.15 EC50 (μM)) | EC50 (HBV [2]; Hepatitis B virus, HepG2.117, 72 h, read-out: HepG2 117 EC50 (μM)) | CC50 at 4 days [3] | EC50 (HBV [1]; [7])
Cc1cc(NC(=O)c2cccc(S(=O)(=O)NC3CC(=O)N(C)C3)c2)ccc1F (racemic) [Compound 179a] | 0.38 µM | 0.25 µM | > 25000 nM | – | – | – | – | –
Cc1cc(NC(=O)c2cccc(S(=O)(=O)NC3CC(=O)N(C)C3)c2)ccc1F (racemic) [Compound 179b] | 1.11 µM | 1.84 µM | > 25000 nM | – | – | – | – | –
Cc1cc(NC(=O)c2cccc(S(=O)(=O)NC3Cc4ccccc4C3O)c2)ccc1F (single isomer, unassigned) [Compound 141b, N-(4-fluoro-3-methyl-phenyl)-3-[[(1R,2S)-1-hydroxyindan-2-yl]sulfamoyl]benzamide or N-(4-fluoro-3-methyl-phenyl)-3-[[(1S,2R)-1-hydroxyindan-2-yl]sulfamoyl]benzamide] | 0.27 µM | 0.23 µM | > 25000 nM | – | – | – | – | –
O=C(Nc1ccc(F)cc1)c1cccc(S(=O)(=O)NC2CCCCC2)c1 [Compound 6] | – | – | > 25000 nM | 0.58 µM | – | – | – | –
Cc1cc(NC(=O)c2cccc(S(=O)(=O)NC(C)Cc3ccccc3)c2)ccc1F (centres unmarked) [Compound 169] | – | – | – | – | 0.24 µM | 1.41 µM | 14900 nM | –
Cc1cc(NC(=O)c2cccc(S(=O)(=O)NCCC3CC3)c2)ccc1F [Compound 170] | – | – | – | 0.45 µM | – | – | > 25000 nM | 0.26 µM
Cc1cc(NC(=O)c2cccc(S(=O)(=O)NC3COCC3O)c2)ccc1F (centres unmarked) [Compound 171] | – | – | – | 4.39 µM | – | – | > 25000 nM | 0.79 µM
Cc1cc(NC(=O)c2cccc(S(=O)(=O)N[C@@H]3CCC[C@@H]3O)c2)ccc1F [Compound 172] | – | – | – | 0.61 µM | – | – | > 25000 nM | 0.26 µM
Cc1cc(NC(=O)c2cccc(S(=O)(=O)N[C@@H]3CCC[C@H]3O)c2)ccc1F [Compound 173] | – | – | – | 0.36 µM | – | – | > 25000 nM | 0.37 µM
Cc1cc(NC(=O)c2cccc(S(=O)(=O)N[C@@H](C)C3CC3)c2)ccc1F [Compound 174] | – | – | – | 2.84 µM | – | – | > 25000 nM | 0.47 µM
Cc1cc(NC(=O)c2cccc(S(=O)(=O)N[C@@H]3c4ccccc4C[C@H]3O)c2)ccc1F [Compound 175] | – | – | – | 0.15 µM | – | – | > 25000 nM | 0.23 µM
Cc1cc(NC(=O)c2cccc(S(=O)(=O)N[C@H]3c4ccccc4C[C@@H]3O)c2)ccc1F [Compound 176] | – | – | – | 0.56 µM | – | – | > 25000 nM | 0.62 µM
Cc1cc(NC(=O)c2cccc(S(=O)(=O)N[C@H]3c4ccccc4C[C@H]3O)c2)ccc1F [Compound 177] | – | – | – | 0.72 µM | – | – | > 25000 nM | 0.77 µM
Cc1cc(NC(=O)c2cccc(S(=O)(=O)N[C@@H]3CCc4ccccc4[C@H]3O)c2)ccc1F [Compound 178] | – | – | – | 2.54 µM | – | – | > 25000 nM | 0.75 µM
Cc1cc(NC(=O)c2cccc(S(=O)(=O)NC3CCC(=O)N(C)C3)c2)ccc1F (centres unmarked) [Compound 180] | – | – | – | 1.3 µM | – | – | > 25000 nM | 0.76 µM
Cc1cc(NC(=O)c2cccc(S(=O)(=O)NC3CCN(C)C3=O)c2)ccc1F (centres unmarked) [Compound 181] | – | – | – | 2.04 µM | – | – | > 25000 nM | 2.59 µM
Cc1cc(NC(=O)c2cccc(S(=O)(=O)NC3CN(C(=O)OC(C)(C)C)C3)c2)ccc1F [Compound 182] | – | – | – | 0.88 µM | – | – | > 25000 nM | 0.31 µM
Cc1cc(NC(=O)c2cccc(S(=O)(=O)NC3(C(F)(F)F)CC3)c2)ccc1F [Compound 183] | – | – | – | 0.84 µM | – | – | > 25000 nM | 0.08 µM
Cc1cc(NC(=O)c2cccc(S(=O)(=O)NC3CC(O)C3)c2)ccc1F (centres unmarked) [Compound 184] | – | – | – | 0.4 µM | – | – | > 25000 nM | 0.15 µM
Cc1cc(NC(=O)c2cccc(S(=O)(=O)N[C@H]3C[C@H](O)C3)c2)ccc1F [Compound 184a] | – | – | – | 0.77 µM | – | – | > 25000 nM | 0.31 µM
Cc1cc(NC(=O)c2cccc(S(=O)(=O)N[C@H]3C[C@@H](O)C3)c2)ccc1F [Compound 184b] | – | – | – | 0.33 µM | – | – | > 25000 nM | 0.3 µM
COC(=O)N1CC(NS(=O)(=O)c2cccc(C(=O)Nc3ccc(F)c(C)c3)c2)C1 [Compound 185] | – | – | – | 0.62 µM | – | – | > 25000 nM | 0.22 µM
Cc1cc(NC(=O)c2cccc(S(=O)(=O)NC(C)C)c2)cc(C)c1F [Compound 186] | – | – | – | 1.34 µM | – | – | > 25000 nM | 0.2 µM
Cc1ccc(S(=O)(=O)NC2(C)COC2)c(F)c1C(=O)Nc1ccc(F)c(C#N)c1 [Compound 191] | – | – | – | 0.36 µM | – | – | > 25000 nM | 0.33 µM
Cc1ccc(S(=O)(=O)NC2(C)COC2)c(F)c1C(=O)Nc1ccc(F)c(F)c1 [Compound 194] | – | – | – | 0.31 µM | – | – | > 25000 nM | 0.38 µM
